This is an account of results in patent US6528528B2 (Warner-Lambert Company, priority 1997, dated 2003).

For the first assay, the target named is T1, rabbit reticulocyte 15-LO (Oryctolagus cuniculus, UniProt P12530).
T1 construct: Fifteen-lipoxygenase was obtained from phenylhydrazine-treated rabbits and purified per the method of Rapoport; from tissue; host or cells: reticulocytes of phenylhydrazine-treated rabbits
T1 sequence (P12530 1-663): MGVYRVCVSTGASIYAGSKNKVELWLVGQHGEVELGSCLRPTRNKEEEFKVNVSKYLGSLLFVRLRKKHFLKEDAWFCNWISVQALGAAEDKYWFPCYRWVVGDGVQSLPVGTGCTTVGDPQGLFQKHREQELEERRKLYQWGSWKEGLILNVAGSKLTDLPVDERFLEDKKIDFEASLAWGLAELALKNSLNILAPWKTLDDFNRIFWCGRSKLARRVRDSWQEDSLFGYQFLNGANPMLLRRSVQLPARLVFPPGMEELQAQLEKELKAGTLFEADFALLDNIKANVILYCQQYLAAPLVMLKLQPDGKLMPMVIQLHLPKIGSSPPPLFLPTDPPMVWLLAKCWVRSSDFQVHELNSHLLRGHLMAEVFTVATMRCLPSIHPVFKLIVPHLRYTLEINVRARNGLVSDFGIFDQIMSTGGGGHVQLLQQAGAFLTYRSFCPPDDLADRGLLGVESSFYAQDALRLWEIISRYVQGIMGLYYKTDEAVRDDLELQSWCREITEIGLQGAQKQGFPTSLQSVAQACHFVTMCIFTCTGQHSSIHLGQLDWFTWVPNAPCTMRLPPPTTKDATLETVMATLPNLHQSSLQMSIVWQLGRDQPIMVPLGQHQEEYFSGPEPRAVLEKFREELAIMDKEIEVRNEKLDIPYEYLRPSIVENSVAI
The experiment in a line: Rabbit Reticulocyte 15-LO Assay (h15LO). The settings on record: Table 2; 2U rabbit reticulocyte 15-LO, 174 μM linoleic acid, 15 minutes at 4° C. The format is biochemical. The method, then: Rabbit Reticulocyte 15-LO Assay (h15LO)
The present 15-LO assay takes advantage of the ability of 15-LO to oxidize the fatty acid linoleic acid to the hydroperoxy fatty acid 13-(S)HPODE, resulting in the formation of a conjugated diene. The 15-LO inhibitors are incubated with 15-LO enzyme in the presence of linoleic acid substrate. The initial reaction is compared to an uninhibited (maximal) reaction to yield % inhibition. […] This prevents artificial nonenzyme lipid peroxidation and product breakdown in the sample. 13-HPODE is quantitated by comparing peak areas of individual samples with those from a standard curve generated using authentic 13-HODE. This assay is performed using 2U of rabbit reticulocyte 15-LO in the presence of 174 μM linoleic acid. The reaction is incubated for 15 minutes at 4° C. The total reaction volume is 100 μL in PBS containing 0.2% Na cholate.
Fifteen-lipoxygenase was obtained from phenylhydrazine-treated rabbits and purified per the method of Rapoport (Rapoport S. M., Schewe T., Wiesner R., et al. The lipoxygenase of reticulocytes. Purification, characterization, and biological dynamics of the lipoxygenase; its identity with the respiratory inhibitors of the reticulocyte. European Journal of Biochemistry, 1979;96:545-561). The following chemicals were purchased and used as received: linoleic acid (NUJCheck Prep), 13-HPODE (Biomol Research Labs), sodium cholate (Sigma), trimethyl phosphite (Fluka Chemicals).
For `COc1ccc(C(=O)OCc2ccccc2)cc1NC(=S)Nc1cc(Cl)cc(Cl)c1` [Example 176, 3-[3-(3,5-Dichloro-phenyl)-thioureido]-4-methoxy-benzoic Acid Benzyl Ester], the IC50 (usually the concentration that gives 50% inhibition) is 800 nM.
In turn, `CCCCCCCCCCCCS(=O)(=O)Nc1cc(C(=O)Nc2ccccc2)ccc1OC` [Example 177, 3-(Dodecane-1-sulfonylamino)-4-methoxy-N-phenyl-benzamide] came in with an IC50 of 2 nM.
In turn, `CCCCCCCCS(=O)(=O)Nc1cc(C(=O)Nc2ccccc2)ccc1OC` [Example 178, 4-Methoxy-3-(octane-1-sulfonylamino)-N-phenyl-benzamide] returned a concentration for half-maximal inhibition (IC50) of 4 nM.
As to `CCCCCCCCCCS(=O)(=O)Nc1cc(C(=O)Nc2ccccc2)ccc1OC` [Example 179, 3-(Decane-1-sulfonylamino)-4-methoxy-N-phenyl-benzamide], the IC50 was determined as 7 nM.
Same read-out and setting: in the case of `COc1ccc(C(=O)Nc2ccc(F)c(F)c2)cc1NS(=O)(=O)c1cccc([N+](=O)[O-])c1` [Example 180, 3-(3-Nitro-benzenesufonylamino)-4-methoxy-N-(3,4-difluoro-phenyl)-benzamide] it was 36 nM; in that of `COc1ccc(C(=O)Nc2ccccc2)cc1NS(=O)(=O)C(C)C` [Example 182, 3-(1-Methylethyl-1-sulfonylamino)-4-methoxy-N-phenyl-benzamide], 232 nM; in that of `COc1ccc(C(=O)Nc2ccccc2)cc1NS(=O)(=O)c1ccc(C(=O)O)cc1` [Example 183, 4-(2-Methoxy-5-phenylcarbamoyl-phenylsulfamoyl)-benzoic Acid], 293 nM.
With `CCCCCCCCCCCCCCCCCCS(=O)(=O)Nc1cc(C(=O)Nc2ccccc2)ccc1OC` [Example 184, 3-(Octadecane-1-sulfonylamino)-4-methoxy-N-phenyl-benzamide], the IC50 was 732 nM.
Same read-out and setting: under `COc1ccc(S(=O)(=O)Nc2cc(NC(=O)c3ccc(Cl)c(Cl)c3)ccc2OC)cc1` [Example 196, 3,4-Dichloro-N-[4-methoxy-3-(4-methoxy-benzenesulfonylamino)-phenyl]-benzamide] stands 33 nM.
The same measure, in the same setting: in the case of `COc1ccc(NC(=O)c2ccc(Cl)c(Cl)c2)cc1NS(=O)(=O)c1ccc(C)cc1` [Example 197, 3,4-Dichloro-N-[4-methoxy-3-(toluene-4-sulfonylamino)-phenyl]-benzamide] it was 36 nM.

The assay is the same for the next values; noted with them: Table 2; concentration not given.
With `COc1ccc(NC(=O)Nc2ccc(Cl)c(Cl)c2)cc1NC(=S)Nc1cccc(C(=O)O)c1` [Example 173, 3-(3-{5-[3-(3,4-Dichloro-phenyl}-ureido]-2-methoxy-phenyl)-thioureido)-benzoic Acid], the “h15LO, value given as bare %” value is given as 55%.
On the same count and under the same terms, in the case of `COc1ccc(NC(=O)Nc2ccc(Cl)c(Cl)c2)cc1NC(=S)Nc1cc(C(F)(F)F)cc(C(F)(F)F)c1` [Example 174, 1-{3-[3-(3,5-Bis-trifluoromethyl-phenyl)-thioureido]-4-methoxy-phenyl}-3-(3,4-dichloro-phenyl)-urea] it was 53%; in that of `COc1ccc(NC(=O)Nc2ccc(Cl)c(Cl)c2)cc1NC(=S)Nc1ccc(Cl)c([N+](=O)[O-])c1` [Example 175, 1-{3-[3-(4-Chloro-3-nitro-phenyl)-thioureido]-4-methoxy-phenyl}-3-(3,4-dichloro-phenyl)-urea], 52%.
Same read-out and setting: in the case of `COc1ccc(C(=O)Nc2ccc(F)c(F)c2)cc1NS(=O)(=O)c1cccc(N)c1` [Example 185, 3-(3-Amino-benzenesulfonylamino)-4-methoxy-N-(3,4-difluoro-phenyl)-benzamide] it was 99.71%.
Regarding `COc1ccc(C(=O)Nc2ccc(F)c(F)c2)cc1NS(=O)(=O)c1ccc([N+](=O)[O-])cc1` [Example 186, 4-Methoxy-3-(4-nitro-benzenesulfonylamino)-N-(3,4-difluoro-phenyl)-benzamide], the “h15LO, value given as bare %” value is given as 99.35%.
Same read-out and setting: in the case of `COc1ccc(C(=O)Nc2ccc(F)c(F)c2)cc1NS(=O)(=O)c1ccc(C#N)cc1` [Example 187, 3-(4-Cyano-benzenesulfonylamino)-4-methoxy-N-(3,4-difluoro-phenyl)-benzamide] it was 98.38%; in that of `COc1ccc(C(=O)Nc2ccccc2)cc1NS(=O)(=O)c1ccc([N+](=O)[O-])cc1` [Example 188, 4-Methoxy-3-(4-nitro-benzenesulfonylamino)-N-phenyl-benzamide], 97.24%; in that of `COc1ccc(C(=O)Nc2ccc(F)cc2)cc1NS(=O)(=O)c1cccc(C#N)c1` [Example 189, 3-(3-Cyano-benzenesulfonylamino)-4-methoxy-N-(4-fluoro-phenyl)-benzamide], 97.17%.
Turning to `COc1ccc(C(=O)Nc2ccc(F)cc2)cc1NS(=O)(=O)c1cccc([N+](=O)[O-])c1` [Example 190, 4-Methoxy-3-(3-nitro-benzenesulfonylamino)-N-(4-fluoro-phenyl)-benzamide], the “h15LO, value given as bare %” value came to 97.05%.
The same measure, in the same setting: in the case of `COc1ccc(C(=O)Nc2ccc(F)cc2)cc1NS(=O)(=O)c1ccc([N+](=O)[O-])cc1` [Example 191, 4-Methoxy-3-(4-nitro-benzenesulfonylamino)-N-(4-fluoro-phenyl)-benzamide] it was 96.99%.
Same read-out and setting: in the case of `COc1ccc(C(=O)Nc2ccccc2)cc1NS(=O)(=O)c1ccc(C#N)cc1` [Example 192, 3-(4-Cyano-benzenesulfonylamino)-4-methoxy-N -phenyl-benzamide] it was 95.56%; in that of `COc1ccc(C(=O)Nc2ccc(F)cc2)cc1NS(=O)(=O)c1ccc(C#N)cc1` [Example 193, 3-(4-Cyano-benzenesulfonylamino)-4-methoxy-N-(4-fluoro-phenyl)-benzamide], 94.51%; in that of `COc1ccc(C(=O)Nc2ccccc2)cc1NS(=O)(=O)c1cccc(C#N)c1` [Example 195, 3-(3-Cyano-benzenesulfonylamino)-4-methoxy-N-phenyl-benzamide], 93.07%.
On the same count and under the same terms, under `COc1ccc(NC(=O)c2ccc(F)c(F)c2)cc1NS(=O)(=O)c1cccc(N)c1` [Example 198, 3,4-Difluoro-N-[4-methoxy-3-(3-amino-benzenesulfonylamino)-phenyl]-benzamide] stands 97.77%; under `COc1ccc(NC(=O)c2ccc(F)c(F)c2)cc1NS(=O)(=O)c1ccc(N)cc1` [Example 199, 3,4-Difluoro-N-[4-methoxy-3-(4-amino-benzenesulfonylamino)-phenyl]-benzamide], 97.68%; under `CCCCCCCCCCCCS(=O)(=O)Nc1cc(NC(=O)c2ccc(F)c(F)c2)ccc1OC` [Example 200, 3,4-Difluoro-N-[4-methoxy-3-(1-dodecane-sulfonylamino)-phenyl]-benzamide], 96.92%.
For `COc1ccc(NC(=O)c2ccc(F)c(F)c2)cc1NS(=O)(=O)CCl` [Example 201, 3,4-Difluoro-N-[4-methoxy-3-(chloromethyl-sulfonylamino)-phenyl]. benzamide], the “h15LO, value given as bare %” value is listed as 93.97%.
On the same count and under the same terms, in the case of `COc1ccc(NC(=O)c2ccc(F)c(F)c2)cc1NS(=O)(=O)c1ccc([N+](=O)[O-])cc1` [Example 202, 3,4-Difluoro-N-[4-methoxy-3-(4-nitro-benzenesulfonylamino)-phenyl]-benzamide] it was 93.85%; in that of `COc1ccc(NC(=O)c2ccc(F)c(F)c2)cc1NS(=O)(=O)c1cccc([N+](=O)[O-])c1` [Example 203, 3,4-Difluoro-N-[4-methoxy-3-(3-nitro-benzenesulfonylamino)-phenyl]-benzamide], 92.01%.
As to `COc1ccc(NC(=O)c2ccc(F)c(F)c2)cc1NS(=O)(=O)c1ccc(C#N)cc1` [Example 204, 3,4-Difluoro-N-[3-(4-cyano-benzenesulfonylamino)-4-methoxy-phenyl]-benzamide], the “h15LO, value given as bare %” value was found to be 89.54%.
On the same count and under the same terms, under `COc1ccc(NC(=O)c2ccc(F)c(F)c2)cc1NS(=O)(=O)c1cccc(C#N)c1` [Example 205, 3,4-Difluoro-N-[3-(3-cyano-benzenesulfonylamino)-4-methoxy-phenyl]-benzamide] stands 86.96%.
